# Like-named read-outs stand apart in the source and are kept apart here.
# Legend:
# Format in all cases: cell-based
# [1] = tested on: S. aureus Newman; assay: Antimicrobial assay, MIC by microbroth dilution; details: 16 h, cation-adjusted Muller-Hinton broth; for MIC: Staphylococcus aureus, NEWMAN
# Protocol: (§1) Bacterial strains used in susceptibility assays (minimum inhibitory concentrations, MIC) were either part of our internal strain collection or were purchased form the German Collection of Microorganisms and Cell Cultures (DSMZ). All compounds were prepared as DMSO stocks and MIC values were determined in standard microbroth dilution assays. Overnight cultures of bacteria were diluted in cation-adjusted Muller-Hinton broth (BBL™, BD) and were adjusted to approximately 10^5 cfu/mL. […] Bacteria were grown in the presence of the derivatives in serial dilution for 16 h at their optimal growth temperature. MIC values were determined according to CLSI guidelines (antibiotic concentration at which no visible bacterial growth is observed).
# [2] = tested on: B. subtilis DSM-10; assay: Antimicrobial assay, MIC by microbroth dilution; details: 16 h, cation-adjusted Muller-Hinton broth; for MIC: Bacillus subtilis, DSM10
# Protocol: as §1
# [3] = tested on: C. glutamicum DSM-20300; assay: Antimicrobial assay, MIC by microbroth dilution; details: 16 h, cation-adjusted Muller-Hinton broth; for MIC: Corynebacterium glutamicum, DSM20300
# Protocol: as §1
# [4] = tested on: P. falciparum 3D7 (sensitive strain); assay: Antiplasmodial in vitro drug sensitivity assay (HRP2-ELISA); details: P. falciparum 3D7 (sensitive strain), read-out: IC50 against P. falciparum 3D7
# Protocol: (§2) Two laboratory strains of P. falciparum, the chloroquine sensitive 3D7 and the multi-resistant Dd2 were kept in continuous culture as previously described (Trager and Jensen 1976). In brief, parasites were kept in complete culture medium (RPMI 1640, 25 mM HEPES, 2 mM L-glutamine, 50 μg/ml gentamicin and 0.5% w/v AlbuMAX) at 37° C., 5% CO2 and 5% oxygen at 5% hematocrit with daily change of medium. Synchronization was performed with sorbitol twice a week (Lambros and Vanderberg 1979).
# (§3) In Vitro Drug Sensitivity Assay
# (§4) All compounds were dissolved in DMSO at stock dilutions between 25 and 100 mM; the reference drug chloroquine diphosphate (MW: 515.86) was diluted in distilled water and DMSO, respectively. […] Antiplasmodial activity of the different compounds was tested in a drug sensitivity assay against the two laboratory strains using the histidine-rich protein 2 (HRP2) assay as described previously (Noedl 2005). In brief: 96 well plates were pre-coated with the different compounds in a threefold dilution before ring stage parasites were added in complete culture medium at a hematocrit of 1.5% and a parasitemia of 0.05% in a total volume of 225 μl per well. After three days of incubation plates were frozen until analyzed by HRP2-ELISA. All compounds were evaluated in duplicate in at least two independent experiments.
# [5] = tested on: P. falciparum Dd2 (resistant strain); assay: as above; details: P. falciparum Dd2 (resistant strain), read-out: IC50 against P. falciparum Dd2
# Protocol: as §2, §3, §4
# [6] = tested on: E. coli TolC (+PMBN); assay: Antimicrobial assay, MIC by microbroth dilution with PMBN; details: 16 h, 3 μg/mL polymyxin B nonapeptide (PMBN) added
# Protocol: Bacterial strains used in susceptibility assays (minimum inhibitory concentrations, MIC) were either part of our internal strain collection or were purchased form the German Collection of Microorganisms and Cell Cultures (DSMZ). All compounds were prepared as DMSO stocks and MIC values were determined in standard microbroth dilution assays. Overnight cultures of bacteria were diluted in cation-adjusted Muller-Hinton broth (BBL™, BD) and were adjusted to approximately 10^5 cfu/mL. For the E. coli culture, 3 μg/mL of polymyxin B nonapeptide (PMBN) was added to increase permeability of the outer membrane as chlorotonils were previously shown to not penetrate into Gram-negative cells. Bacteria were grown in the presence of the derivatives in serial dilution for 16 h at their optimal growth temperature. MIC values were determined according to CLSI guidelines (antibiotic concentration at which no visible bacterial growth is observed).
# [7] = tested on: L-929 (murine fibroblasts); assay: Cytotoxicity assay (MTT, 5 d); details: Mus musculus, L929, 120 h
# Protocol: Cytotoxicity Assay The murine fibroblast cell line L-929 was obtained from the German Collection of Microorganisms and Cell Cultures (DSMZ) and maintained under conditions recommended by the depositor. Cells were seeded at 6×10^3 cells per well of sterile 96-well plates in 180 μL complete medium and treated with the compounds in serial dilution after 2 h of equilibration. After 5 d, viability was assessed by the MTT method. After 1.5 h incubation with 0.5 mg/mL MTT reagent, cells were washed with PBS and 100 μL of 2-propanol/10 N HCl (250:1) was added. The absorbance at 570 nm was determined on a microplate reader and cell viability was expressed as percentage relative to the respective solvent control. Half-inhibitory concentrations (IC50) were determined by sigmoidal curve fitting.
# [8] = tested on: Gram-positive bacteria; assay: Antimicrobial assay, MIC against a range of Gram-positive bacteria (Table 5)
# Protocol: as §1
SMILES,MIC [1] [µg/mL],MIC [2] [µg/mL],MIC [3] [µg/mL],IC50 ([4]; Plasmodium falciparum) [µM],IC50 ([5]; Plasmodium falciparum) [µM],MIC E. coli TolC (+PMBN) [6] [µg/mL],IC50 [7] [µM],further results
C[C@@H]1C(=O)O[C@@H](C)/C=C/C=C\[C@@H](C)[C@@H]2C=C[C@@H]3C[C@@](C)(Cl)[C@H](O)[C@@H](C)[C@H]3[C@@H]2C(=O)C(Cl)(Cl)C1=O [ChA-Epo1-Cl],3.2,3.2,> 3.2,> 2.1,> 2.1,3.2,–,–
CCO[C@]1(C)C[C@H]2C=C[C@@H]3[C@@H](C(=O)C(Cl)(Cl)C(=O)[C@H](C)C(=O)O[C@@H](C)/C=C/C=C\[C@H]3C)[C@@H]2[C@H](C)[C@H]1O [ChA-Epo1-OEt],> 1.6,> 6.4,> 6.4,–,–,1.6,–,–
CO[C@]1(C)C[C@H]2C=C[C@@H]3[C@@H](C(=O)C(Cl)(Cl)C(=O)[C@H](C)C(=O)O[C@@H](C)/C=C/C=C\[C@H]3C)[C@@H]2[C@H](C)[C@H]1O [ChA-Epo1-OMe],1.6,6.4,> 6.4,–,–,0.8 to 1.6,–,–
C[C@@H]1C(=O)O[C@@H](C)/C=C/C=C\[C@@H](C)[C@@H]2C=C[C@]3(C)C[C@]4(C)O[C@@H]4[C@@H](C)[C@H]3[C@@H]2C(=O)C(Cl)(Cl)C1=O [ChA-Epo1],3.2,3.2,> 3.2,0.0965,0.229,>3.2,10.3,–
C[C@@H]1C(=O)O[C@@H](C)/C=C/C=C\[C@@H](C)[C@@H]2C=C[C@@H]3C[C@@](C)(O)[C@H](Br)[C@@H](C)[C@H]3[C@@H]2C(=O)C(Cl)(Cl)C1=O [ChA-Epo2-Br],0.05,0.05,0.1,0.0251,0.0644,0.2,1.1,–
C[C@@H]1C(=O)O[C@@H](C)/C=C/C=C\[C@@H](C)[C@@H]2C=C[C@@H]3C[C@@](C)(O)[C@H](F)[C@@H](C)[C@H]3[C@@H]2C(=O)C(Cl)(Cl)C1=O [ChA-Epo2-F],0.2,0.2,0.4 to 0.8,0.136,0.329,0.8,–,–
C[C@@H]1C(=O)O[C@@H](C)/C=C/C=C\[C@@H](C)[C@@H]2C=C[C@@H]3C[C@@](C)(O)[C@H](OCc4ccccc4)[C@@H](C)[C@H]3[C@@H]2C(=O)C(Cl)(Cl)C1=O [ChA-Epo2-OBn],0.4,0.4,3.2,–,–,>3.2,–,–
C[C@@H]1C(=O)O[C@@H](C)/C=C/C=C\[C@@H](C)[C@@H]2C=C[C@@H]3C[C@@](C)(O)[C@H](OCCCCO)[C@@H](C)[C@H]3[C@@H]2C(=O)C(Cl)(Cl)C1=O [ChA-Epo2-OBuOH],> 3.2,> 3.2,3.2,–,–,1.6,–,–
CCCCO[C@@H]1[C@@H](C)[C@H]2[C@@H]3C(=O)C(Cl)(Cl)C(=O)[C@H](C)C(=O)O[C@@H](C)/C=C/C=C\[C@@H](C)[C@@H]3C=C[C@@H]2C[C@@]1(C)O [ChA-Epo2-OBu],1.6,0.8,> 3.2,–,–,>3.2,49.4,"IC50 ([4]; Plasmodium falciparum, μM): > 11 µM; IC50 ([5]; Plasmodium falciparum, μM): > 11 µM"
CCO[C@@H]1[C@@H](C)[C@H]2[C@@H]3C(=O)C(Cl)(Cl)C(=O)[C@H](C)C(=O)O[C@@H](C)/C=C/C=C\[C@@H](C)[C@@H]3C=C[C@@H]2C[C@@]1(C)O [ChA-Epo2-OEt],–,> 3.2,> 3.2,–,–,>3.2,> 100,"IC50 ([4]; Plasmodium falciparum, μM): > 11 µM; IC50 ([5]; Plasmodium falciparum, μM): > 11 µM"
C[C@@H]1C(=O)O[C@@H](C)/C=C/C=C\[C@@H](C)[C@@H]2C=C[C@@H]3C[C@@](C)(O)[C@H](O)[C@@H](C)[C@H]3[C@@H]2C(=O)C(Cl)(Cl)C1=O [ChA-Epo2-OH],–,> 6.4,> 6.4,> 2.17,> 2.17,>6.4,–,–
CO[C@@H]1[C@@H](C)[C@H]2[C@@H]3C(=O)C(Cl)(Cl)C(=O)[C@H](C)C(=O)O[C@@H](C)/C=C/C=C\[C@@H](C)[C@@H]3C=C[C@@H]2C[C@@]1(C)O [ChA-Epo2-OMe],–,> 3.2,> 3.2,–,–,3.2,> 100,"IC50 ([4]; Plasmodium falciparum, μM): > 11 µM; IC50 ([5]; Plasmodium falciparum, μM): > 11 µM"
C[C@@H]1C(=O)O[C@@H](C)/C=C/C=C\[C@@H](C)[C@@H]2C=C[C@@H]3C[C@@](C)(O)[C@H](OCC(O)CO)[C@@H](C)[C@H]3[C@@H]2C(=O)C(Cl)(Cl)C1=O (stereo partly shown) [ChA-Epo2-glycerol],4,> 3.2,> 3.2,> 1.9,> 1.9,>3.2,–,–
C[C@H]1[C@H]2[C@@H]3C(=O)/C(Cl)=C(\O)[C@H](C)C(=O)O[C@@H](C)/C=C/C=C\[C@@H](C)[C@@H]3C=C[C@@H]2C[C@@]2(C)O[C@@H]12 [ChB1-Epo],–,–,–,–,–,–,–,"MIC ([8]; Enterococcus faecalis, E. faecalis 20478, read-out: MIC): 0.8 µg/mL; MIC ([8]; Enterococcus faecalis, E. faecalis 29212, read-out: MIC): 0.8 µg/mL; MIC ([8]; Enterococcus faecium, E. faecium 20477, read-out: MIC): 0.2 µg/mL; MIC ([8]; Enterococcus faecium, VRE, E. faecium 17050 (VRE), read-out: MIC): 32 µg/mL; MIC ([8]; Micrococcus luteus, M. luteus, read-out: MIC): 0.0125 µg/mL; MIC ([8]; Mycolicibacterium smegmatis, M. smegmatis, read-out: MIC): 16 µg/mL; MIC ([8]; Priestia megaterium, B. megaterium, read-out: MIC): 0.0125 µg/mL; MIC ([8]; Staphylococcus epidermidis, S. epidermidis 28765, read-out: MIC): 0.05 µg/mL; MIC ([8]; Streptococcus pneumoniae, S. pneumoniae 20566, read-out: MIC): 0.4 µg/mL"
"CC1=C[C@@H](C)[C@H]2[C@@H]3C(O)=C(Cl)C(=O)[C@H](C)C(=O)O[C@@H](C)/C=C/C=C\[C@@H](C)[C@@H]3C=C[C@@H]2C1 [Chlorotonil B (ChB), Chlorotonil B, reference compound]",–,–,–,–,–,>3.2,–,MIC S. aureus Newman [1]: 0.2 µg/mL; MIC B. subtilis DSM-10 [2]: 0.2 µg/mL; MIC C. glutamicum DSM-20300 [3]: 0.1 µg/mL; MIC ([8]; B. megaterium): 0.1 µg/mL; MIC ([8]; E. faecalis 20478): >3.2 µg/mL; MIC ([8]; E. faecalis 29212): >3.2 µg/mL; MIC ([8]; E. faecium 17050 (VRE)): >3.2 µg/mL; MIC ([8]; E. faecium 20477): >3.2 µg/mL; MIC ([8]; M. luteus): 0.4 µg/mL; MIC ([8]; M. smegmatis): 0.0125 µg/mL; MIC ([8]; S. epidermidis 28765): >3.2 µg/mL; MIC ([8]; S. pneumoniae 11865 (PRSP)): >16 µg/mL; MIC ([8]; S. pneumoniae 20566): 1.6 µg/mL; IC50 [4]: 0.0966 µM; IC50 [5]: 0.0636 µM
